Results from US20250197372A1 (priority 2020, published 2025).

Columns and labels:
Format in all cases: biochemical
[1] = molecular target: T1, recombinant alpha-glucosidase II (murine full-length glucosidase II, alpha and beta subunits, Glu 2) (Mus musculus, UniProt Q8BHN3); assay: Alpha-glucosidase II assay (4-methylumbelliferyl-alpha-D-pyranoside substrate, fluorescence); conditions: Glucosidase 2; read-out: Glu2 IC50
T1 construct: made in house; host or cells: HEK-293T cells transduced with BacMam viruses (75% alpha, 25% beta); protein harvested from culture supernatant
T1 sequence (O08795 15-521): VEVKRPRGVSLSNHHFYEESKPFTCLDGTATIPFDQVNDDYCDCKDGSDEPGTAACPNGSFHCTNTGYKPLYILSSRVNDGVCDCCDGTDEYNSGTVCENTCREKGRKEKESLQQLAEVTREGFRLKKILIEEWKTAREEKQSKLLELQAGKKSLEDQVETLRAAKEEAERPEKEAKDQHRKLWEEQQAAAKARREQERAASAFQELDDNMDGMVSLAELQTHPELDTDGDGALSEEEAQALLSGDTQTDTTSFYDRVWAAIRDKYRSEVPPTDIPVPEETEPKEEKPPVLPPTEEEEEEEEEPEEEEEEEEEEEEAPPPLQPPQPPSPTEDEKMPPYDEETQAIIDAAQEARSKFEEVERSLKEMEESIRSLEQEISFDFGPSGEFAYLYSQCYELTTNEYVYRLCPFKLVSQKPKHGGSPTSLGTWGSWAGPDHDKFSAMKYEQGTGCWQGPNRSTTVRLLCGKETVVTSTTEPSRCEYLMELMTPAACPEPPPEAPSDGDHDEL
T1 sequence (Q8BHN3 33-944): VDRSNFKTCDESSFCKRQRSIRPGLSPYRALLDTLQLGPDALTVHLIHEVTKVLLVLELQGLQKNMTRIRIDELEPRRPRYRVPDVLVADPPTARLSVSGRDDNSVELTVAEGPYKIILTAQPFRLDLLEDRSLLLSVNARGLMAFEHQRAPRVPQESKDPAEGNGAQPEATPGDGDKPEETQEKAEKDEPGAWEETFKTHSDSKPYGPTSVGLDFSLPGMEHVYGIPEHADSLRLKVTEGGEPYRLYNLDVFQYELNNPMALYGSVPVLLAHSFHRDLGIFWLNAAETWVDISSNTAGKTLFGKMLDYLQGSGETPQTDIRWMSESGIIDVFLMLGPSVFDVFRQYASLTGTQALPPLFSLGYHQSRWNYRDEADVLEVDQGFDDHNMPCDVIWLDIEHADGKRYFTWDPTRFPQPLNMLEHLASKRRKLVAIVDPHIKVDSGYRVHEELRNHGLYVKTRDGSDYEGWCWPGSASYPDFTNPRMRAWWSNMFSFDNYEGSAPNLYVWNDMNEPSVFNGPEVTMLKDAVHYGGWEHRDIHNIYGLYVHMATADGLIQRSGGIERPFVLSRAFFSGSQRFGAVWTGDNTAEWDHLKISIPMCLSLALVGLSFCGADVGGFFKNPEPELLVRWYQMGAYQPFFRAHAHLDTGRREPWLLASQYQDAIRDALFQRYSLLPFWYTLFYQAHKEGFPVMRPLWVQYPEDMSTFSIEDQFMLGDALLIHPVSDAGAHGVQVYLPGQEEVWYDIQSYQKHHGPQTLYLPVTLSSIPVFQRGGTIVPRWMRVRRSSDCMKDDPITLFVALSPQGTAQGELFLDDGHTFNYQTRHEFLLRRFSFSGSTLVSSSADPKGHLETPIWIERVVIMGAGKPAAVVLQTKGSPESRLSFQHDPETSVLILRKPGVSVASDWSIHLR

[2] = molecular target: recombinant human GAA (acid alpha-glucosidase) (Homo sapiens, UniProt P10253); assay: Acid alpha-glucosidase (GAA) assay (4-methylumbelliferyl-alpha-D-pyranoside substrate, fluorescence)
In short: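 Recombinant human enzyme preincubated 60 min at 37 °C with compound dilutions, then 4-methylumbelliferyl-alpha-D-pyranoside substrate added for 20 min at 37 °C. Stopped with glycine/NaOH pH 10; methylumbelliferone fluorescence (ex 365, em 440 nm) versus untreated enzyme; IC50 by 4-PL fit.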

[3] = molecular target: rat maltase (partially purified alpha-glucosidase from intestinal rat powder); assay: Intestinal alpha-glucosidase assay, maltose substrate (Glucose GO Kit)
In short: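 First step: 60 min, 37 °C, compound with partially purified rat intestinal alpha-glucosidase. Next, maltose or sucrose for 30 min at 37 °C, ended at 90 °C for 5 min. Glucose quantified enzymatically; concentration–inhibition data fitted 4-PL for IC50.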

Row | SMILES | IC50 [1] [nM] | IC50 [2] [nM] | IC50 [3] [nM]
1 | CS(C)=NS(=O)(=O)c1cc(-c2ncccn2)ccc1NCCCCCCN1C[C@H](O)[C@@H](O)[C@H](O)[C@H]1CO [Compound 1247, N-(dimethyl-2-sulfanylidene)-5-(pyrimidin-2-yl)-2-({6-[(2R,3R,4R,5S)-3,4,5-trihydroxy-2-(hydroxymethyl)piperidin-1-yl]hexyl}amino)benzene-1-sulfonamide] | 6 | 53 | 18
2 | N#Cc1cc(Br)cc(NCc2ccc(CN3C[C@H](O)[C@@H](O)[C@H](O)[C@H]3CO)cc2)c1 [Compound 1026, 3-bromo-5-{[(4-{[(2R,3R,4R,5S)-3,4,5-trihydroxy-2-(hydroxymethyl)piperidin-1-yl]methyl}phenyl)methyl]amino}benzonitrile] | < 1 | 64 | < 1
3 | CN(C)Cc1ccc(NCCCCCCN2C[C@H](O)[C@@H](O)[C@H](O)[C@H]2CO)c(C(=O)O)c1 [Compound 1245, 5-[(dimethylamino)methyl]-2-({6-[(2R,3R,4R,5S)-3,4,5-trihydroxy-2-(hydroxymethyl)piperidin-1-yl]hexyl}amino)benzoic acid] | 51 | 392 | 32
4 | OC[C@@H]1[C@@H](O)[C@H](O)[C@@H](O)CN1CCCCCCCCC1CNCCO1 (stereo partly drawn) [Compound 1311, (2R,3R,4R,5S)-2-(hydroxymethyl)-1-[8-(morpholin-2-yl)octyl]piperidine-3,4,5-triol] | 197 | 747 | < 10
5 | [N-]=[N+]=Nc1ccc(NCCc2cccc(CCN3C[C@H](O)[C@@H](O)[C@H](O)[C@H]3CO)c2)c([N+](=O)[O-])c1 [Compound 1240, (2R,3R,4R,5S)-1-[2-(3-{2-[(4-azido-2-nitrophenyl)amino]ethyl}phenyl)ethyl]-2-(hydroxymethyl)piperidine-3,4,5-triol] | 45 | 12800 | 701
